pIC50: −log10 of the molar value. “And” between values parts separate entries of the source, which are not always exact repeats. Equal entries are not always repeated. e = 2'-O-(2-methoxyethyl) (MOE); d = 2'-deoxy (DNA)
Key:
human TGF-beta1 mRNA [1] = assay: Dose-dependent confirmation of antisense inhibition of human TGF-beta1 in HuVEC cells after large-scale synthesis, Lipofectamine 2000, 0.007-15 nM (Example 5); format: cell-based; conditions: for percent inhibition of TGF-beta1: Lipofectamine 2000
Protocol: Cells were plated at a density of 5,000 cells per well and transfected using Lipofectamine™ 2000 reagent with 0.007 nM, 0.021 nM, 0.062 nM, 0.185 nM, 0.556 nM, 1.667 nM, 5 nM, and 15 nM concentrations of antisense oligonucleotide for 4 hours, as specified in Table 5. After a recovery period of approximately 16 hours, RNA was isolated from the cells and TGF-beta1 mRNA levels were measured by quantitative real-time PCR. Human TGF-beta1 primer probe set RTS 2980 was used to measure mRNA levels. TGF-beta1 mRNA levels were adjusted according to total RNA content, as measured by RIBOGREEN®. Results are presented as percent inhibition of TGF-beta1, relative to untreated control cells.

BALB/c mice = conditions: mouse, in vivo
murine TGF-beta1 = assay: Inhibition of murine TGF-beta1 expression (data not shown); design: species or system mouse
human TGF-beta1 mRNA [2] = assay: Dose-dependent confirmation of antisense inhibition of human TGF-beta1 in HuVEC cells, electroporation (Example 6); format: cell-based
Protocol: The gapmers from Example 5 (see Table 5) were also tested at various doses in HuVEC cells using electroporation as the transfection reagent. Cells were plated at a density of 20,000 cells per well and transfected using electroporation with 0.15625 nM, 0.3125 nM, 0.625 nM, 1.25 nM, 2.5 nM, 5 nM, 10 nM, and 20 nM concentrations of antisense oligonucleotide for 4 hours, as specified in Table 6. After a recovery period of approximately 16 hours, RNA was isolated from the cells and TGF-beta1 mRNA levels were measured by quantitative real-time PCR. TGF-beta1 mRNA levels were adjusted according to total RNA content, as measured by RIBOGREEN®. Results are presented as percent inhibition of TGF-beta1, relative to untreated control cells.

human TGF-beta1 mRNA [3] = assay: Dose-dependent antisense inhibition of human TGF-beta1 in HuVEC cells, Lipofectamine 2000, 0.9375-30 nM (Example 3); format: cell-based; conditions: Lipofectamine 2000
Outline: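 HuVEC cells, 5,000/well, were transfected with Lipofectamine 2000 and 0.9375-30 nM antisense oligonucleotide for 4 h, then recovered about 16 h. TGF-beta1 mRNA was quantified by real-time PCR (primer probe set RTS 2980), normalised to RIBOGREEN total RNA, and expressed as percent inhibition versus untreated cells.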

human TGF-beta1 mRNA [4] = assay: Dose-dependent antisense inhibition of human TGF-beta1 in HuVEC cells, Lipofectamine 2000, 0.3292-80 nM, comparison with oligos of U.S. Pat. No. 6,436,909 (Example 4); format: cell-based
Protocol: The dose-dependent antisense inhibition potential of these gapmers was compared with that of Oligo IDs 104992 and 1138498 from U.S. Pat. No. 6,436,909. Cells were plated at a density of 5,000 cells per well and transfected using Lipofectamine™ 2000 reagent with 0.3292 nM, 0.9877 nM, 2.963 nM, 8.8889 nM, 26.6667 nM, and 80 nM concentrations of antisense oligonucleotide for 4 hours, as specified in Table 4. After a recovery period of approximately 16 hours, RNA was isolated from the cells and TGF-beta1 mRNA levels were measured by quantitative real-time PCR. Human TGF-beta1 primer probe set RTS 2980 was used to measure mRNA levels. TGF-beta1 mRNA levels were adjusted according to total RNA content, as measured by RIBOGREEN®. Results are presented as percent inhibition of TGF-beta1, relative to untreated control cells. […] All the antisense oligonucleotides in Table 4 target human TGF-beta1 mRNA (SEQ ID NO: 1).

human TGF-beta1 mRNA [5] = assay: Antisense inhibition of human TGF-beta1 mRNA in HuVEC cells, single 10 nM dose, Lipofectamine 2000 (Example 2); format: cell-based
Outline: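 Percent inhibition relative to untreated controls, from qRT-PCR of mRNA corrected for total RNA (RIBOGREEN). Cells were exposed 4 h to 10 nM phosphorothioate 2-13-5 MOE gapmers with Lipofectamine 2000 at 5,000 cells/well. RNA was harvested after roughly 24 h recovery.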

414036 (antisense GTGTCCTTAAATACAGCCCC; sugars from the 5' end e2 d13 e5, backbone and methylation of C not given here) [compound 414036]
percent inhibition of TGF-beta1 (human TGF-beta1 mRNA [1]; 0.007 nM): 5%
percent inhibition of TGF-beta1 (human TGF-beta1 mRNA [1]; 0.021 nM): 26%
percent inhibition of TGF-beta1 (human TGF-beta1 mRNA [1]; 0.062 nM): 41%
percent inhibition of TGF-beta1 (human TGF-beta1 mRNA [1]; 0.185 nM): 58%
percent inhibition of TGF-beta1 (human TGF-beta1 mRNA [1]; 0.556 nM): 73%
percent inhibition of TGF-beta1 (human TGF-beta1 mRNA [1]; 1.667 nM): 84%
percent inhibition of TGF-beta1 (human TGF-beta1 mRNA [1]; 5 nM): 91%
percent inhibition of TGF-beta1 (human TGF-beta1 mRNA [1]; 15 nM): 90%
pIC50 (human TGF-beta1 mRNA [1]; Lipofectamine 2000, Example 5): 9.82
tolerability compared to Oligo ID 105204 (BALB/c mice): improved tolerability
murine TGF-beta1 expression (murine TGF-beta1): inhibits
percent inhibition of TGF-beta1 mRNA relative to untreated control cells (human TGF-beta1 mRNA [2]; 0.15625 nM oligonucleotide): 10%
percent inhibition of TGF-beta1 mRNA relative to untreated control cells (human TGF-beta1 mRNA [2]; 0.3125 nM oligonucleotide): 38%
percent inhibition of TGF-beta1 mRNA relative to untreated control cells (human TGF-beta1 mRNA [2]; 0.625 nM oligonucleotide): 55%
percent inhibition of TGF-beta1 mRNA relative to untreated control cells (human TGF-beta1 mRNA [2]; 1.25 nM oligonucleotide): 74%
percent inhibition of TGF-beta1 mRNA relative to untreated control cells (human TGF-beta1 mRNA [2]; 2.5 nM oligonucleotide): 83%
percent inhibition of TGF-beta1 mRNA relative to untreated control cells (human TGF-beta1 mRNA [2]; 5.00 nM oligonucleotide): 92%
percent inhibition of TGF-beta1 mRNA relative to untreated control cells (human TGF-beta1 mRNA [2]; 10.00 nM oligonucleotide): 94%
percent inhibition of TGF-beta1 mRNA relative to untreated control cells (human TGF-beta1 mRNA [2]; 20 nM oligonucleotide): 92%
percent inhibition of TGF-beta1 (human TGF-beta1 mRNA [3]; 0.9375 nM): 56%
percent inhibition of TGF-beta1 (human TGF-beta1 mRNA [3]; 1.875 nM): 75%
percent inhibition of TGF-beta1 (human TGF-beta1 mRNA [3]; 3.75 nM): 86%
percent inhibition of TGF-beta1 (human TGF-beta1 mRNA [3]; 7.5 nM): 93%
percent inhibition of TGF-beta1 (human TGF-beta1 mRNA [3]; 15 nM): 95%
percent inhibition of TGF-beta1 (human TGF-beta1 mRNA [3]; 30 nM): 93%
percent inhibition of TGF-beta1 (human TGF-beta1 mRNA [4]; 0.3292 nM): 70%
percent inhibition of TGF-beta1 (human TGF-beta1 mRNA [4]; 0.9877 nM): 83%
percent inhibition of TGF-beta1 (human TGF-beta1 mRNA [4]; 2.963 nM): 91%
percent inhibition of TGF-beta1 (human TGF-beta1 mRNA [4]; 8.8889 nM): 93%
percent inhibition of TGF-beta1 (human TGF-beta1 mRNA [4]; 26.6667 nM): 92%
percent inhibition of TGF-beta1 (human TGF-beta1 mRNA [4]; 80.0 nM): 89%
% inhibition (human TGF-beta1 mRNA [5]; 10 nM oligonucleotide, HuVEC, relative to untreated control cells, gapmers targeted to SEQ ID NO: 1): 87%
inhibition of a TGF-beta1 mRNA (human TGF-beta1 mRNA [5]; threshold lists of Oligo IDs, 10 nM): 60% and 65% and 70% and 75% and 80% and 85%

— patent US20110172296A1, “MODULATION OF TRANSFORMING GROWTH FACTOR-BETA 1 EXPRESSION” (priority 2010, published 2011)
